According to ChEMBL document CHEMBL4616617, “Two Decades of Successful SAR-Grounded Stories of the Novel Bacterial Topoisomerase Inhibitors (NBTIs)” (J Med Chem, 2020):
pIC50: −log10 of the molar value.

Legend:
[1] = test system: Staphylococcus aureus; experiment: Antibacterial activity against Staphylococcus aureus assessed as reduction in microbial growth after 18 hrs by NCCLS based method; assay type: functional
[2] = Inhibition of Staphylococcus aureus N-terminal His6-tagged DNA gyrase B expressed in Escherichia coli BL21(DE3) cells using relaxed pBR322 DNA as substrate incubated for 1 hr by agarose gel electrophoresis method
[3] = Inhibition of Escherichia coli DNA topoisomerase 4 using supercoiled pBR322 DNA as substrate by agarose gel electrophoresis method
[4] = molecular target: Topoisomerase IV (Staphylococcus aureus, UniProt P0C1S7+P0C1U9); experiment: Inhibition of Staphylococcus aureus RN4220 DNA topoisomerase 4 expressed in Escherichia coli BL21(DE3) cells using supercoiled pBR322 DNA as substrate by agarose gel electrophoresis method
[5] = test system: Escherichia coli; experiment: Antibacterial activity against Escherichia coli ATCC 25922 assessed as reduction in microbial growth by CLSI based broth microdilution method; assay type: functional
[6] = test system: Staphylococcus aureus; experiment: Antibacterial activity against Staphylococcus aureus A798 assessed as reduction in microbial growth by CLSI based broth microdilution method; assay type: functional
[7] = test system: Staphylococcus aureus; experiment: Antibacterial activity against methicillin-sensitive Staphylococcus aureus assessed as reduction in microbial growth by CLSI based broth microdilution method; assay type: functional
[8] = test system: Escherichia coli; experiment: Antibacterial activity against levofloxacin-susceptible Escherichia coli assessed as reduction in microbial growth by CLSI based broth microdilution method; assay type: functional
[9] = test system: Haemophilus influenzae; experiment: Antibacterial activity against Haemophilus influenzae assessed as reduction in microbial growth by CLSI based broth microdilution method; assay type: functional
[10] = test system: Streptococcus pneumoniae; experiment: Antibacterial activity against levofloxacin-nonsusceptible Streptococcus pneumoniae assessed as reduction in microbial growth by CLSI based broth microdilution method; assay type: functional
[11] = test system: Staphylococcus aureus; experiment: Antibacterial activity against methicillin-resistant Staphylococcus aureus assessed as reduction in microbial growth by CLSI based broth microdilution method; assay type: functional
[12] = test system: Staphylococcus aureus; experiment: Antibacterial activity against Staphylococcus aureus assessed as reduction in microbial growth by CLSI based broth microdilution method; assay type: functional
[13] = test system: Staphylococcus aureus; experiment: Antibacterial activity against levofloxacin-resistant Staphylococcus aureus assessed as reduction in microbial growth by CLSI based broth microdilution method; assay type: functional
[14] = test system: Escherichia coli; experiment: Antibacterial activity against levofloxacin-nonsusceptible Escherichia coli assessed as reduction in microbial growth by CLSI based broth microdilution method; assay type: functional
[15] = test system: Streptococcus pneumoniae; experiment: Antibacterial activity against penicillin-susceptible Streptococcus pneumoniae assessed as reduction in microbial growth by CLSI based broth microdilution method; assay type: functional
[16] = test system: Escherichia coli; experiment: Antibacterial activity against Escherichia coli assessed as reduction in microbial growth by CLSI based broth microdilution method; assay type: functional
[17] = test system: Neisseria gonorrhoeae; experiment: Antibacterial activity against Neisseria gonorrhoeae assessed as reduction in microbial growth by agar dilution method; assay type: functional
[18] = test system: Streptococcus pneumoniae; experiment: Antibacterial activity against Streptococcus pneumoniae assessed as reduction in microbial growth by CLSI based broth microdilution method; assay type: functional
[19] = test system: Streptococcus pneumoniae; experiment: Antibacterial activity against penicillin-intermediate Streptococcus pneumoniae assessed as reduction in microbial growth by CLSI based broth microdilution method; assay type: functional
[20] = test system: Streptococcus pneumoniae; experiment: Antibacterial activity against penicillin-resistant Streptococcus pneumoniae assessed as reduction in microbial growth by CLSI based broth microdilution method; assay type: functional

Topoisomerase IV, sequence (P0C1U9 whole entry): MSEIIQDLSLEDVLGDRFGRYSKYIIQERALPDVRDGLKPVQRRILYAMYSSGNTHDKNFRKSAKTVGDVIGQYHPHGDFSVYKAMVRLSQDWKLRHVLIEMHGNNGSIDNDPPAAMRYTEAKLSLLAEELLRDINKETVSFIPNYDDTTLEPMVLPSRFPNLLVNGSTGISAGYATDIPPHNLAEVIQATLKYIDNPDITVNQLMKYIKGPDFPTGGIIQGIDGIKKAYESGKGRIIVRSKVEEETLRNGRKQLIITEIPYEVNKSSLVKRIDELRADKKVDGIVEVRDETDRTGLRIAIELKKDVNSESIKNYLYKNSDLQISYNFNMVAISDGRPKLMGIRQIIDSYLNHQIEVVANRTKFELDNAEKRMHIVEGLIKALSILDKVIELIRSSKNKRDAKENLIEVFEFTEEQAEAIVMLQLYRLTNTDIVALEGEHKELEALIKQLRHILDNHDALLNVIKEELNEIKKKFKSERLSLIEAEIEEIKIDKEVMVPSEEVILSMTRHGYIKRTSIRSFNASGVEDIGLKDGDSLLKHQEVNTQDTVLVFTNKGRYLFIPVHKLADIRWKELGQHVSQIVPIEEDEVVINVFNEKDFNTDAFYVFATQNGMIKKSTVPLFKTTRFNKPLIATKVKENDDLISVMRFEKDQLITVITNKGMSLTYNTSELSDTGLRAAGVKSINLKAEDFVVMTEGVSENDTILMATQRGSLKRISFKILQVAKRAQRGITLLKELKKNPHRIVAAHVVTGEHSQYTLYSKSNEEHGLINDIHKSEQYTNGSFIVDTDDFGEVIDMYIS
Topoisomerase IV, sequence (P0C1S7 whole entry): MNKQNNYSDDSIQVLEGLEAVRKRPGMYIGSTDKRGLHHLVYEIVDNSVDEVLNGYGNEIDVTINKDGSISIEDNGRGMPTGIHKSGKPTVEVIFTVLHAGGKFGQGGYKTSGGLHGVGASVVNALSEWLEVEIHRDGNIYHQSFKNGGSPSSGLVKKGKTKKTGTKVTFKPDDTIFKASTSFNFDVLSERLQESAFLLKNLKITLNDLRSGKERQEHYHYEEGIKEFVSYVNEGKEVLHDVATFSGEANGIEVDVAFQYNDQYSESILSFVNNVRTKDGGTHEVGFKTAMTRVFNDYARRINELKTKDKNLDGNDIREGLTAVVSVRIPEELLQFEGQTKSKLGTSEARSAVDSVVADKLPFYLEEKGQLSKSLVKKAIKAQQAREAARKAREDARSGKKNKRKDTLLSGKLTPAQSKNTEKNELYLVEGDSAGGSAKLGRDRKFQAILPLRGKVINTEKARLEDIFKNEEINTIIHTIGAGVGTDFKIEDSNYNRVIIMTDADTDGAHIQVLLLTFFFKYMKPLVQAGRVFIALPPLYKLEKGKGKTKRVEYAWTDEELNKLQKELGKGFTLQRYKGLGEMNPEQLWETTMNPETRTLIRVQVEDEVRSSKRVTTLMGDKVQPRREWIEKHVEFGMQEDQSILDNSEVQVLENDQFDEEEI

Q: With COc1ccc2ncc(F)c([C@@H](O)CC[C@@H]3CCN(CCSc4cccs4)C[C@@H]3C(=O)O)c2c1 as the compound, how does the MIC [1] read?
A: 0.12 to 1 µg/mL

Q: What about the pIC50 [2] of the same compound?
A: 6.00

Q: What about the pIC50 [3] of the same compound?
A: 6.70

Q: What about the pIC50 [4] of the same compound?
A: 6.52

Q: With CN1CC(Oc2cccc(-c3cccc(CNCC[C@@H]4CN(c5ccc6c(n5)NC(=O)CO6)C(=O)O4)c3)n2)C1 as the compound, how does the MIC [5] read?
A: 0.25 µg/mL

Q: And the MIC [6]?
A: 0.25 µg/mL

Q: Which results are given for O=c1ccc2ncc(=O)n3c2n1C[C@H]3CN1CCC(NCc2cc3c(cn2)OCCC3)CC1 [GEPOTIDACIN]?
A: MIC90 [7]: 0.5 µg/mL; MIC90 [8]: 2 µg/mL; MIC90 [9]: 1 µg/mL; MIC90 [10]: 0.25 µg/mL; MIC90 [11]: 0.5 µg/mL; MIC90 [12]: 0.5 µg/mL; MIC90 [13]: 0.5 µg/mL; MIC90 [14]: 2 µg/mL; MIC90 [15]: 0.25 µg/mL; MIC90 [16]: 2 µg/mL; MIC90 [17]: 0.25 µg/mL; MIC90 [18]: 0.25 µg/mL; MIC90 [19]: 0.25 µg/mL; MIC90 [20]: 0.25 µg/mL
